Results on 2 compounds are retold here after PMC8602723, “Comparative assessment of antimicrobial, antiradical and cytotoxic activities of cannabidiol and its propyl analogue cannabidivarin” (Scientific Reports, 2021).

The subject of experiment [1] is S. aureus (ATCC 6538). As to the kind of experiment: Microbial susceptibility test (growth inhibition). Conditions: Staphylococcus aureus, read-out: IC50 bacterial growth inhibition. The experiment is classed as cell-based. How it is done:
(§1) Escherichia coli (ATCC 13762) and S. aureus (ATCC 6538) were cultured overnight in tryptic soy broth and soybean-casein digestive medium (TSB, Oxoid, Milano, Italy) at 37 °C[70]. Subsequently, using 96-well plates (Sarstedt, Italy), 100 µL of TSB, 100 µL of CBD (5–160 µM, DF = 2) or CBDV (5.46–175 µM, DF = 2) and 100 µL of the bacterial culture corresponding to 1 × 10^4 CFU were added sequentially to each well. CBD and CBDV final concentrations in wells equal to 1.66–53 and 1.82–58.19 µM, respectively, were chosen on the basis of range-finding tests. TSB alone was used as the blank, physiologic solution (0.9% NaCl) was used as the negative control, methanol 5% v/v (final percentage in wells equal to 1.6% v/v) was used as the solvent control, and streptomycin at 60 µM (final concentration in the well equal to 20 µM) was used as the positive control. Experiments were conducted in sextuplicate. The plates were covered with sterile film to prevent evaporation and incubated at 37 °C. After 24, 48 and 72 h, the optical density of each well was recorded at 620 nm using a microplate reader. The bacterial growth inhibition percentage (IC%) was determined as follows:7 IC%=1-OD620testsample-OD620blank/OD620negativecontrol-OD620blank·100
(§2) All results from five independent experiments are expressed as the IC50 or EC50 as determined by analysis with Prism 5 software (GraphPad Inc., San Diego, CA, USA) and nonlinear regression (log agonist vs. normalized response-variable slope) with a 95% confidence range. Lowest observed adverse effect concentrations (LOAECs) were calculated by one-way ANOVA and Dunnett’s comparison test. Differences compared to the controls were considered significant as follows: *p < 0.05, **p < 0.001 and ***p < 0.0001.

The subject of experiment [2] is Escherichia coli (ATCC 13762). As to the kind of experiment: Microbial susceptibility test (growth inhibition). The class given is cell-based. As to conditions: read-out: IC50 bacterial growth inhibition. How it is done:
as §1, §2

Experiment [3] concerns S. aureus. On the set-up: method as in PMID 33469147. Conditions: S. aureus exposed at 6–14 µM; cited from earlier work.
The subject of experiment [4] is SZ95, normal-like sebocytes. Details: method as in PMID 27094344. As to conditions: 24 h of treatment; cited from earlier work.

Each structure is given as a SMILES string. Where two headings read alike, the source gives them in different places.

For orientation: IC50 means the midpoint of a concentration-inhibition curve.

In the case of `C=C(C)[C@@H]1CCC(C)=C[C@H]1c1c(O)cc(CCCCC)cc1O` [CBD, Cannabidiol], the IC50 in experiment [1] (ATCC6538, S. aureus, 24 h of exposure, 95% confidence range in brackets) was determined as 10.3 µM; in experiment [1] (ATCC6538, S. aureus, 48 h of exposure, 95% confidence range in brackets), 4.86 µM; in experiment [1] (ATCC6538, S. aureus, 72 h of exposure, 95% confidence range in brackets), 1.84 µM; in experiment [2] (ATCC13762, E. coli, 72 h of incubation, 95% confidence range in brackets), 29.1 µM. Further, the “protein, DNA, RNA and peptidoglycan synthesis” value in experiment [3] is “inhibited”.
Take `C=C(C)[C@@H]1CCC(C)=C[C@H]1c1c(O)cc(CCC)cc1O` [CBDV, cannabidivarin]: in experiment [4], the “concentration giving a significant decrease in cell viability (MTT)” value was 100 nM. Besides, the IC50 was found to be 30.8 µM in experiment [1] (ATCC6538, 72 h) and 35.5 µM in experiment [2] (ATCC13762, 72 h).
